This note sets out measurements from ChEMBL document CHEMBL1909046, “DrugMatrix in vitro pharmacology data”.

The structures appear in SMILES notation.

Sequence of Sigma non-opioid intracellular receptor 1 (Q99720 whole entry): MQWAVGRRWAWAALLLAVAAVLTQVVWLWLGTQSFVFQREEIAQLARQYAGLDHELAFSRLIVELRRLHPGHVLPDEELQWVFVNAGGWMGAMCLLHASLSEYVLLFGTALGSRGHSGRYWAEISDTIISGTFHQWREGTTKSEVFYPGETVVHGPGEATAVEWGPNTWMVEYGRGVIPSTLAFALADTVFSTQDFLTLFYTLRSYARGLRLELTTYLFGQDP

For one test, the target named is Delta-type opioid receptor (Homo sapiens, UniProt P41143). Format: cell membranes, HEK293, Membrane. As to conditions: hek293. Note: in other assays of this panel Not Active means under 50% inhibition at 10 µM.
Sequence of Delta-type opioid receptor (P41143 whole entry): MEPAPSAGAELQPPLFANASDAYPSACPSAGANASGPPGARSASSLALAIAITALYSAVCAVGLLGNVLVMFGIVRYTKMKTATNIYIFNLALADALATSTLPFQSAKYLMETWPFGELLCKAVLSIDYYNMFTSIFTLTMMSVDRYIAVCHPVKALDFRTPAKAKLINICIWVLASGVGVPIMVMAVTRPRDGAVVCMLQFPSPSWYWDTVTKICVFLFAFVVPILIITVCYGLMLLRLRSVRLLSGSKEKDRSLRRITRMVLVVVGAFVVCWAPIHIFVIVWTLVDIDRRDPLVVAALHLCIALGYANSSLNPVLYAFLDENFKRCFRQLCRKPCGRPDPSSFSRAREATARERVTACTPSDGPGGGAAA
Broadly, the IC50 is the point on the concentration scale where inhibition reaches its midpoint. Turning to `CC(=O)O[C@]1(C(C)=O)CC[C@H]2[C@@H]3C=C(Cl)C4=CC(=O)CC[C@]4(C)[C@H]3CC[C@@]21C` [CHLORMADINONE ACETATE], the IC50 entry is given as “Not Active”.
Same read-out and setting: the entry for `O=C1OCCN1/N=C/c1ccc([N+](=O)[O-])o1` [FURAZOLIDONE] is “Not Active”.

The next test deals with Nitric oxide synthase 1 (Rattus norvegicus, UniProt P29476). Format: tissue-based, Cerebellum.
Sequence of Nitric oxide synthase 1 (P29476 whole entry): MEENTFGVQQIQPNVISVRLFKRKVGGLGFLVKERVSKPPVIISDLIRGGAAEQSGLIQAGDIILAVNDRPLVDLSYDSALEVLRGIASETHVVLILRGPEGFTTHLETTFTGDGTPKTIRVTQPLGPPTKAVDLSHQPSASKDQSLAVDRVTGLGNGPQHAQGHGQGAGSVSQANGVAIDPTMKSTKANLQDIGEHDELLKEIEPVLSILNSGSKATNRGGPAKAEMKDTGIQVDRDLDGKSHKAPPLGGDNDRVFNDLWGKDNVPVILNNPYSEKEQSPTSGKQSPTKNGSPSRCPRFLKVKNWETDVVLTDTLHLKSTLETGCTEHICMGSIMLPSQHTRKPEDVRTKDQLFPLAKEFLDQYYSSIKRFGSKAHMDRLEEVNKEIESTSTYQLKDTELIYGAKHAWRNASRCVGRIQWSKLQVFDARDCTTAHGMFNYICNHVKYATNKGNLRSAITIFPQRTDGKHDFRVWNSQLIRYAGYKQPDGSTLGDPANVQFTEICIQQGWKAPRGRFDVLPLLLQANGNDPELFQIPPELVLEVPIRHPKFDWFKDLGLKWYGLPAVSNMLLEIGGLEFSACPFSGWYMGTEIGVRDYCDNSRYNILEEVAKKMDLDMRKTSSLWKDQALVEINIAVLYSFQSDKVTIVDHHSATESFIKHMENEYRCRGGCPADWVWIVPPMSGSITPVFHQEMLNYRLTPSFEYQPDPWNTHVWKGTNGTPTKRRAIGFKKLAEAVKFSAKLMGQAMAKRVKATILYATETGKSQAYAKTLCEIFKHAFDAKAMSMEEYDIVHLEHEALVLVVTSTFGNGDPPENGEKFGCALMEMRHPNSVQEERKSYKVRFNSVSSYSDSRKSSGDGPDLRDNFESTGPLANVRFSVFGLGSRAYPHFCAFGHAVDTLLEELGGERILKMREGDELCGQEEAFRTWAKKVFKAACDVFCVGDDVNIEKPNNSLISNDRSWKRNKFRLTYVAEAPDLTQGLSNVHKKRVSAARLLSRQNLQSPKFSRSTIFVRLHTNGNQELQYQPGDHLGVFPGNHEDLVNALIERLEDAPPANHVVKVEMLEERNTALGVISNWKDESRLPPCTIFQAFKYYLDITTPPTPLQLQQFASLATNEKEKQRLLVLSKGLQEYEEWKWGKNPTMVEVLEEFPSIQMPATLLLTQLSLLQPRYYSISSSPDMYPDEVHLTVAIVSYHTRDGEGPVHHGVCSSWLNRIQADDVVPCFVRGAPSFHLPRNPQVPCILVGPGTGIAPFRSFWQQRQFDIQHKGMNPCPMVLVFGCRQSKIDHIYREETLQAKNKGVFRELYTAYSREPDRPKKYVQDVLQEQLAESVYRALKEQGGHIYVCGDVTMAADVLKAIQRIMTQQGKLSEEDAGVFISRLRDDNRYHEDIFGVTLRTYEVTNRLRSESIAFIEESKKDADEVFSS
Conditions: not given
For the compound `CC(=O)O[C@]1(C(C)=O)CC[C@H]2[C@@H]3C=C(Cl)C4=CC(=O)CC[C@]4(C)[C@H]3CC[C@@]21C` [CHLORMADINONE ACETATE], the half-inhibitory concentration (IC50) entry is listed as “Not Active”.
As for `O=C1OCCN1/N=C/c1ccc([N+](=O)[O-])o1` [FURAZOLIDONE], the IC50 entry is listed as “Not Active”.

The next test has as its target T1, Alpha-1A adrenergic receptor (Rattus norvegicus, UniProt P43140).
T1 sequence (P43140 whole entry): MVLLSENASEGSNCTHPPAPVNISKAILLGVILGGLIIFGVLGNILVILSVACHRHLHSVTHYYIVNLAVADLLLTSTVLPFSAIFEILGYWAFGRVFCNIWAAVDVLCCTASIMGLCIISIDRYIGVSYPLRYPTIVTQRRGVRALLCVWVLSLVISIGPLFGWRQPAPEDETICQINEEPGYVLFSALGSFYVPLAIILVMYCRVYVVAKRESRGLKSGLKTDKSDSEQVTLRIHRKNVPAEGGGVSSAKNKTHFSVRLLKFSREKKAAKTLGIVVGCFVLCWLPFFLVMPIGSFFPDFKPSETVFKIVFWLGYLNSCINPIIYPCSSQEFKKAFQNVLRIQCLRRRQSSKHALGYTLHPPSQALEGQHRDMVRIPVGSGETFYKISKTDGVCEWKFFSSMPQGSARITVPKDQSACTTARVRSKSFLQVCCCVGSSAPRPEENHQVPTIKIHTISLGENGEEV
Description: DRUGMATRIX: Alpha-1A adrenergic receptor radioligand binding (ligand: prazosin). Format: cell membranes, Wistar, Submaxillary gland, Membrane. As to conditions: Not Active = under 50% inhibition at 10 µM.
On to `CC(=O)O[C@]1(C(C)=O)CC[C@H]2[C@@H]3C=C(Cl)C4=CC(=O)CC[C@]4(C)[C@H]3CC[C@@]21C` [CHLORMADINONE ACETATE], for which the half-maximal inhibitory concentration (IC50) result was “Not Active”.
Regarding `O=C1OCCN1/N=C/c1ccc([N+](=O)[O-])o1` [FURAZOLIDONE], the IC50 result was “Not Active”.

Test system in the next test: not listed separately
In words: DRUGMATRIX: Serotonin (5-Hydroxytryptamine) 5-HT3 radioligand binding (ligand: [3H] GR-65630). It is filed as cell membranes, Membrane. As to conditions: hek293; Not Active = under 50% inhibition at 10 µM.
As a reminder, the Ki is a dissociation constant, usually derived from enzyme kinetics or from competition with a known ligand. Turning to `CC(=O)O[C@]1(C(C)=O)CC[C@H]2[C@@H]3C=C(Cl)C4=CC(=O)CC[C@]4(C)[C@H]3CC[C@@]21C` [CHLORMADINONE ACETATE], the IC50 entry is given as “Not Active” and the Ki result is given as “Not Active”.
Regarding `O=C1OCCN1/N=C/c1ccc([N+](=O)[O-])o1` [FURAZOLIDONE], the IC50 result is “Not Active” and the Ki result is listed as “Not Active”.

The target in a further test is T2, Progesterone receptor (Bos taurus, UniProt Q690N0).
T2 sequence (Q690N0 whole entry): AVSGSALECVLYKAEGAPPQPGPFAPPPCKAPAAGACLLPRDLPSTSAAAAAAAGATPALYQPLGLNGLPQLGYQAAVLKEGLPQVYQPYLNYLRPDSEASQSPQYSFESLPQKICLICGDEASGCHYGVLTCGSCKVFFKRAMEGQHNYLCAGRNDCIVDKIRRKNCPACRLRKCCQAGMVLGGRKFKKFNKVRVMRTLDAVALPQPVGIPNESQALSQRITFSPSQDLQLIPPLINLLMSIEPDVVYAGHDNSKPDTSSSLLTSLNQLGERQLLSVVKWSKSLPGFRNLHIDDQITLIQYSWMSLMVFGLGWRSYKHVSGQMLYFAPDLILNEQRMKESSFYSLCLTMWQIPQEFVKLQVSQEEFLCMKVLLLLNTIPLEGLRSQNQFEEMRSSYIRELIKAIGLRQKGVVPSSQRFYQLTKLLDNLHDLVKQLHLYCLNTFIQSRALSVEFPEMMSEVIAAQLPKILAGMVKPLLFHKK
In words: DRUGMATRIX: Progesterone radioligand binding (ligand: [3H] R-5020). It is filed as tissue-based, Uterus. To be noted: Not Active = under 50% inhibition at 10 µM.
As for `O=C1OCCN1/N=C/c1ccc([N+](=O)[O-])o1` [FURAZOLIDONE], the IC50 entry is recorded as “Not Active”.

The same test, now with this note: Not Active = under 50% inhibition at 10 µM; read-out: IC50.
On to `CC(=O)O[C@]1(C(C)=O)CC[C@H]2[C@@H]3C=C(Cl)C4=CC(=O)CC[C@]4(C)[C@H]3CC[C@@]21C` [CHLORMADINONE ACETATE], for which the 50% inhibitory concentration (IC50) is 5.26 nM.

The test is the same for the next values; noted with them: Not Active = under 50% inhibition at 10 µM; read-out: Ki.
On to `CC(=O)O[C@]1(C(C)=O)CC[C@H]2[C@@H]3C=C(Cl)C4=CC(=O)CC[C@]4(C)[C@H]3CC[C@@]21C` [CHLORMADINONE ACETATE], for which the Ki stood at 0.687 nM.

In the next test the target is Matrix metalloproteinase-9 (Homo sapiens, UniProt P14780). It is filed as cell-based.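 Note: inhibition of isolated MMP-9 enzyme activity toward a synthetic peptide substrate, from the DrugMatrix protease screening panel; in other assays of this panel Not Active means under 50% inhibition at 10 µM.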
Conditions: not given
For the compound `CC(=O)O[C@]1(C(C)=O)CC[C@H]2[C@@H]3C=C(Cl)C4=CC(=O)CC[C@]4(C)[C@H]3CC[C@@]21C` [CHLORMADINONE ACETATE], the concentration for half-maximal inhibition (IC50) entry is recorded as “Not Active”.
On the same count and under the same terms, then `O=C1OCCN1/N=C/c1ccc([N+](=O)[O-])o1` [FURAZOLIDONE], with “Not Active”.

A further test deals with Vascular endothelial growth factor receptor 1 (Homo sapiens, UniProt P17948). Format: cell-based. As to conditions: huvec.
Sequence of Vascular endothelial growth factor receptor 1 (P17948 whole entry): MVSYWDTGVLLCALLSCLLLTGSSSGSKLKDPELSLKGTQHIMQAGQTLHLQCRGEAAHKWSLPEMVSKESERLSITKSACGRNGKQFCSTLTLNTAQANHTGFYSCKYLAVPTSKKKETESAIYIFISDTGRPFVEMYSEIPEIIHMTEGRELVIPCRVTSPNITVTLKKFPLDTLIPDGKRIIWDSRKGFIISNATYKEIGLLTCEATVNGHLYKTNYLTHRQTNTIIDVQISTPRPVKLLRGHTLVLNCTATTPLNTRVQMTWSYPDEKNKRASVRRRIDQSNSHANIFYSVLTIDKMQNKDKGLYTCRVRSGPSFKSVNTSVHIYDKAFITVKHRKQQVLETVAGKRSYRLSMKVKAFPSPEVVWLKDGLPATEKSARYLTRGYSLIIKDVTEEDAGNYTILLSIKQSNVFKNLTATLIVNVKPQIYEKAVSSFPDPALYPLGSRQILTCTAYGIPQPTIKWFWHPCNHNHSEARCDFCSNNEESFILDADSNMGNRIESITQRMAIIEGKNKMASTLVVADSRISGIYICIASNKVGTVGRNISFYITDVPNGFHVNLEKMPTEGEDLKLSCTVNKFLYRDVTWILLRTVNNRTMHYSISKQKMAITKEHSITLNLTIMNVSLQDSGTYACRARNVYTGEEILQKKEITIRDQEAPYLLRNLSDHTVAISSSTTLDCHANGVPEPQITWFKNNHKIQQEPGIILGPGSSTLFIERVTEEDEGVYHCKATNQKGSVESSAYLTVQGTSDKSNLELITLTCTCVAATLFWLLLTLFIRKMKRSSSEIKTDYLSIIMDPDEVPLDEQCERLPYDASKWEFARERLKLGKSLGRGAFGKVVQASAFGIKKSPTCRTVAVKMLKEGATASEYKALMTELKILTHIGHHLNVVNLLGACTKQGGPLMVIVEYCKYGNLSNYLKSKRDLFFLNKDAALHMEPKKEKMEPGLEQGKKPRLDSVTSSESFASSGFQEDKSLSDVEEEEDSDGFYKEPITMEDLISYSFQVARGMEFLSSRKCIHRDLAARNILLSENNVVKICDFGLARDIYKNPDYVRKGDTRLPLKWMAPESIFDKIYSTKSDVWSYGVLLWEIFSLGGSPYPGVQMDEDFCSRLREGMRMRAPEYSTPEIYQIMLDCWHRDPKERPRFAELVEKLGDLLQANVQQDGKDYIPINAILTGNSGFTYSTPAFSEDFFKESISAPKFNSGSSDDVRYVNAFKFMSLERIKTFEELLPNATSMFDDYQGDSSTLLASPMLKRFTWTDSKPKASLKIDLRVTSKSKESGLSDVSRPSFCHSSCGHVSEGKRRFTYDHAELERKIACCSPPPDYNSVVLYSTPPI
With `CC(=O)O[C@]1(C(C)=O)CC[C@H]2[C@@H]3C=C(Cl)C4=CC(=O)CC[C@]4(C)[C@H]3CC[C@@]21C` [CHLORMADINONE ACETATE], the 50% inhibitory concentration (IC50) result was “Not Active”.
On the same count and under the same terms, the entry for `O=C1OCCN1/N=C/c1ccc([N+](=O)[O-])o1` [FURAZOLIDONE] is “Not Active”.

Another test addresses Sigma non-opioid intracellular receptor 1 (Homo sapiens, UniProt Q99720). Description: DRUGMATRIX: Sigma1 radioligand binding (ligand: [3H] Haloperidol). Format: cell membranes, Jurkat, Membrane. As to conditions: jurkat; Not Active = under 50% inhibition at 10 µM.
Consider `CC(=O)O[C@]1(C(C)=O)CC[C@H]2[C@@H]3C=C(Cl)C4=CC(=O)CC[C@]4(C)[C@H]3CC[C@@]21C` [CHLORMADINONE ACETATE], for which the IC50 entry is reported as “Not Active”.
The same measure, in the same setting: the entry for `O=C1OCCN1/N=C/c1ccc([N+](=O)[O-])o1` [FURAZOLIDONE] is “Not Active”.

In the next test the target is T3, Muscarinic acetylcholine receptor M4 (Homo sapiens, UniProt P08173). Note: in other assays of this panel Not Active means under 50% inhibition at 10 µM.
T3 sequence (P08173 whole entry): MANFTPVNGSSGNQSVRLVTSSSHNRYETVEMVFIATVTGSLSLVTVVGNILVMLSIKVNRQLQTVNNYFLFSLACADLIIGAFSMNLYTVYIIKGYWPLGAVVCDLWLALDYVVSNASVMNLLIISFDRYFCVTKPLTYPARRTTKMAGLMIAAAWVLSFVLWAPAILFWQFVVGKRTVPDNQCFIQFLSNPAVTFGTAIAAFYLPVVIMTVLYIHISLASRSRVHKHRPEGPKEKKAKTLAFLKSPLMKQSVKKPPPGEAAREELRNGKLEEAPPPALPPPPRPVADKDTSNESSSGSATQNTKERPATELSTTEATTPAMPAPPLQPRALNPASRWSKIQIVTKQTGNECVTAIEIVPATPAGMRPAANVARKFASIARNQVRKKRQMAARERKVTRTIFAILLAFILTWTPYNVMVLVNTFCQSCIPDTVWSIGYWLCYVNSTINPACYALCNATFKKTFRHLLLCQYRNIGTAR
Format: cell membranes, CHO-K1, Membrane. To be noted: cho-k1.
With `CC(=O)O[C@]1(C(C)=O)CC[C@H]2[C@@H]3C=C(Cl)C4=CC(=O)CC[C@]4(C)[C@H]3CC[C@@]21C` [CHLORMADINONE ACETATE], the half-maximal inhibitory concentration (IC50) entry was “Not Active”.
Turning to `O=C1OCCN1/N=C/c1ccc([N+](=O)[O-])o1` [FURAZOLIDONE], the concentration for half-maximal inhibition (IC50) result was “Not Active”.

Another test deals with Protein kinase C alpha type (Homo sapiens, UniProt P17252). It is filed as cell-based. As to conditions: sf9.
`CC(=O)O[C@]1(C(C)=O)CC[C@H]2[C@@H]3C=C(Cl)C4=CC(=O)CC[C@]4(C)[C@H]3CC[C@@]21C` [CHLORMADINONE ACETATE]: the IC50 result was “Not Active”.
Same read-out and setting: the entry for `O=C1OCCN1/N=C/c1ccc([N+](=O)[O-])o1` [FURAZOLIDONE] is “Not Active”.

A further test deals with T4, B2 bradykinin receptor (Homo sapiens, UniProt P30411).
T4 sequence (P30411 whole entry): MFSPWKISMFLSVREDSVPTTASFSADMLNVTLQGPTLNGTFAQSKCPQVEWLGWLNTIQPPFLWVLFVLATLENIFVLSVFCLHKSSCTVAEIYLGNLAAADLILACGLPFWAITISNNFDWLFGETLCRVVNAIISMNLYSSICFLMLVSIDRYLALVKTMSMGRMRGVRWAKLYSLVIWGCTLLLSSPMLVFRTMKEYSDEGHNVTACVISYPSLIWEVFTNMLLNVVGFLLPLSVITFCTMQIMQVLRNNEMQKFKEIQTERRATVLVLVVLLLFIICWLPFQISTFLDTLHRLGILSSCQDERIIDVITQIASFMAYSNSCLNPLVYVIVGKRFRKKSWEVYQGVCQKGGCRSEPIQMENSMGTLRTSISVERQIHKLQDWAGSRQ
Format: cell membranes, Membrane. To be noted: chem-1.
Take `CC(=O)O[C@]1(C(C)=O)CC[C@H]2[C@@H]3C=C(Cl)C4=CC(=O)CC[C@]4(C)[C@H]3CC[C@@]21C` [CHLORMADINONE ACETATE]: the 50% inhibitory concentration (IC50) result was “Not Active”.
As to `O=C1OCCN1/N=C/c1ccc([N+](=O)[O-])o1` [FURAZOLIDONE], the IC50 entry is recorded as “Not Active”.

A further test deals with Mitogen-activated protein kinase 14 (Homo sapiens, UniProt Q16539). More on the design: species or system Escherichia coli.
Sequence of Mitogen-activated protein kinase 14 (Q16539 whole entry): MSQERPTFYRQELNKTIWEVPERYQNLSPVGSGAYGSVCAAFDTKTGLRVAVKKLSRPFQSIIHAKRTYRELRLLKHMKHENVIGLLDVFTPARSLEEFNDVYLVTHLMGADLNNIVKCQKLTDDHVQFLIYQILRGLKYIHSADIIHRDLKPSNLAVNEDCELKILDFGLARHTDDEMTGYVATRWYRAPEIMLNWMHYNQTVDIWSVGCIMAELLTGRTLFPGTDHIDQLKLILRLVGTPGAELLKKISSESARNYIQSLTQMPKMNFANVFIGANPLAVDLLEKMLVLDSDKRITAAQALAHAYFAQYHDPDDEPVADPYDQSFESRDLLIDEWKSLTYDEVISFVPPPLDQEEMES
Conditions: not given
Turning to `CC(=O)O[C@]1(C(C)=O)CC[C@H]2[C@@H]3C=C(Cl)C4=CC(=O)CC[C@]4(C)[C@H]3CC[C@@]21C` [CHLORMADINONE ACETATE], the half-maximal inhibitory concentration (IC50) result was “Not Active”.
Still for that read-out and setting: then `O=C1OCCN1/N=C/c1ccc([N+](=O)[O-])o1` [FURAZOLIDONE], with “Not Active”.
